Consider 4 compounds from ChEMBL document CHEMBL1201862, “PubChem BioAssay data set” (2004).

Some test systems named below: CAKI-1; CCRF-CEM; COLO 205; HCC 2998; HCT-116; HCT-15; HT-29; K562; M14; NCI-H23; NCI-H460; OVCAR-8; SK-MEL-2; SNB-75; U-251; UO-31; ACHN; EKVX; SF-539; TK-10.
Assay in all cases: inhibition of tumour cell growth, NCI panel, 48 h

The structures appear in SMILES notation.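 Dose response: 5 concentrations. Exposure: 48 h. Format: 96-well plates. Endpoint: linear interpolation; highest concentration if not reached. GI50: concentration for 50% inhibition of growth.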 Activity calls are given as the source filed them. No stated cut-off is given here; in the data, active = GI50 up to about 1.1 µM and inactive = higher.

Regarding `c1ccc(/N=C2\S/C(=N\C3CCCCC3)N(C3CCCCC3)\C2=N/c2ccccc2)cc1`, the GI50 with CAKI-1 is > 100 µM (inactive); in the experiment with CCRF-CEM it was > 100 µM (inactive); with COLO 205, > 100 µM (inactive); with HCC 2998, > 100 µM (inactive); with HCT-116 it was > 100 µM (inactive); in the experiment on HCT-15, over 100 µM. The GI50 in the experiment with HT-29, in the experiment with K562, in the experiment on M14, with NCI-H23, in the experiment on NCI-H460 and in the experiment on OVCAR-8 was > 100 µM (inactive) in each case. Further, the GI50 with SK-MEL-2, in the experiment with SNB-75, with U-251 and in the experiment on UO-31 was > 100 µM (inactive) in each case.
With `O=C1NCN(c2ccccc2)C12CCN(CCCN1CCN(CCOC(c3ccc(F)cc3)c3ccc(F)cc3)CC1)CC2`, the GI50 with ACHN was 1.99 µM (inactive); in the experiment on CAKI-1, 2.12 µM (inactive); in the experiment on CCRF-CEM, 3.31 µM (inactive); in the experiment on COLO 205, 1.52 µM (inactive); in the experiment with EKVX it was 2.88 µM (inactive); in the experiment with HCC 2998, 1.51 µM (inactive). Also, the GI50 was 1.7 µM (inactive) in the experiment on HCT-116; 2.23 µM in the experiment with HCT-15; 1.26 µM (inactive) in the experiment on HT-29; 0.91 µM (active) in the experiment with K562; 1.88 µM (inactive) with M14; 3.51 µM (inactive) in the experiment on NCI-H23. Moreover, the GI50 is 2 µM (inactive) in the experiment on NCI-H460; 2.15 µM (inactive) in the experiment on OVCAR-8; 1.71 µM (inactive) in the experiment on SF-539; 1.96 µM (inactive) with SK-MEL-2; 1.75 µM (inactive) in the experiment on TK-10; 1.92 µM (inactive) in the experiment on U-251. Besides, the GI50 with UO-31 was 1.74 µM (inactive).
For `O=C1CCCCC[C@]12SC[C@H]1CON=C12`, the GI50 is 27.8 µM (inactive) with ACHN; 22.2 µM (inactive) in the experiment on CAKI-1; 21.9 µM (inactive) with CCRF-CEM; 29.2 µM (inactive) with COLO 205; 31 µM (inactive) in the experiment on EKVX; 29.1 µM (inactive) with HCC 2998. In addition, the GI50 in the experiment on HCT-116 was 35.2 µM (inactive); in the experiment on HCT-15, 31.3 µM; with HT-29, 38.3 µM (inactive); in the experiment on K562 it was 42.6 µM (inactive); with M14, 22.3 µM (inactive); with NCI-H23, 94.8 µM (inactive). The GI50 with NCI-H460 is 39.1 µM (inactive); in the experiment on OVCAR-8, 65.8 µM (inactive); in the experiment with SF-539, 41.3 µM (inactive); with TK-10, > 100 µM (inactive); in the experiment with U-251, 12.3 µM (inactive); in the experiment with UO-31, 26.9 µM (inactive).
With `COC(=O)c1c(O)ccc2c1c1c(n2Cc2cccc(C)c2)C(=O)c2ccccc2C1=O`, the GI50 in the experiment on ACHN is 11.2 µM (inactive); with CAKI-1 it was 11.8 µM (inactive); in the experiment on CCRF-CEM, 4.86 µM (inactive); with COLO 205 it was 1.67 µM (inactive); with EKVX, 19.5 µM (inactive); in the experiment with HCC 2998, 2.7 µM (inactive). In addition, the GI50 in the experiment on HCT-116 was 6.97 µM (inactive); in the experiment with HCT-15 it was 8.05 µM; with HT-29 it was 4.07 µM (inactive); in the experiment with K562 it was 8.91 µM (inactive); in the experiment with M14, 15 µM (inactive); with NCI-H23, 11.4 µM (inactive). The GI50 with NCI-H460 was 4.29 µM (inactive); in the experiment with OVCAR-8 it was 7.31 µM (inactive); with SF-539, 14.8 µM (inactive); in the experiment on SK-MEL-2, 12.6 µM (inactive); with TK-10, 12 µM (inactive); in the experiment with U-251 it was 11.6 µM (inactive). Moreover, the GI50 with UO-31 was 5.92 µM (inactive).
